In article PMC10584170, “Machine learning-based phenotypic imaging to characterise the targetable biology of Plasmodium falciparum male gametocytes for the development of transmission-blocking antimalarials” (PLOS Pathogens, 2023):
Where two headings read alike, the source gives them in different places.

Columns and labels:
[1] = system: P. falciparum male gametocytes; assay: P. falciparum Dual Gamete Formation Assay (PfDGFA), male readout (exflagellation); assay type: cell-based, Plasmodium falciparum NF54; settings: for Average inhibition male (%) / % inhibition male (individual replicates) R1 / % inhibition male (individual replicates) R3 / % inhibition male (individual replicates) R4 / inhibition at 2 µM: 24h preincubation with gametocytes; for Selectivity Ratio M: HepG2 Tox50 versus male IC50; for HitlevelM: number of replicates with >50% inhibition in the male readout
How it was run: (§1)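 Two sex-specific readouts come from one well: male exflagellation centres recorded by brightfield video right after activation, and female gametes scored by Cy3-anti-Pfs25 fluorescence after 24 h at 28°C.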

[2] = system: P. falciparum female gametocytes; assay: P. falciparum Dual Gamete Formation Assay (PfDGFA), female readout (Pfs25-positive female gametes); assay type: cell-based, Plasmodium falciparum NF54; settings: for Average inhibition female (%) / % inhibition female (individual replicates) R1 / % inhibition female (individual replicates) R3 / % inhibition female (individual replicates) R4 / inhibition at 2 µM: 24h preincubation with gametocytes; for Selectivity ratio F: HepG2 Tox50 versus female IC50; for HitlevelF: number of replicates with >50% inhibition in the female readout
How it was run: as §1

HepG2 cells = assay: HepG2 cytotoxicity counter-screen; settings: for Tox50: cytotoxic activity against HepG2 cells
[3] = PfDGFA, 24 h incubation with gametocytes before induction, exflagellation readout, read-out: Male IC50
[4] = PfDGFA, 24 h incubation with gametocytes before induction, female gamete readout, read-out: Female IC50
[5] = Plasmodium falciparum, PfDGFA, 24 h incubation with gametocytes before induction, exflagellation readout, read-out: Male IC50
[6] = Plasmodium falciparum, PfDGFA, 24 h incubation with gametocytes before induction, female gamete readout, read-out: Female IC50
[7] = Plasmodium falciparum, 2µM, average of replicates, read-out: Average inhibition male (%)
[8] = Plasmodium falciparum, 2µM, replicate R1, read-out: % inhibition male (individual replicates) R1
[9] = Plasmodium falciparum, 2µM, replicate R2, read-out: % inhibition male (individual replicates) R2
[10] = Plasmodium falciparum, 2µM, replicate R3, read-out: % inhibition male (individual replicates) R3
[11] = Plasmodium falciparum, 2µM, replicate R4, read-out: % inhibition male (individual replicates) R4
[12] = Plasmodium falciparum, 2µM, average of replicates, read-out: Average inhibition female (%)
[13] = Plasmodium falciparum, 2µM, replicate R1, read-out: % inhibition female (individual replicates) R1
[14] = Plasmodium falciparum, 2µM, replicate R2, read-out: % inhibition female (individual replicates) R2
[15] = Plasmodium falciparum, 2µM, replicate R3, read-out: % inhibition female (individual replicates) R3
[16] = Plasmodium falciparum, 2µM, replicate R4, read-out: % inhibition female (individual replicates) R4
[17] = PfDGFA at 2µM, average of replicates

SMILES	Average inhibition male (%) ([1]; 2µM, average of replicates)	% inhibition male (individual replicates) R1 ([1]; 2µM, replicate R1) [%]	% inhibition male (individual replicates) R3 ([1]; 2µM, replicate R3) [%]	% inhibition male (individual replicates) R4 ([1]; 2µM, replicate R4) [%]	Selectivity Ratio M [1]	IC50 [1, 3] [µM]	Average inhibition female (%) ([2]; 2µM, average of replicates)	% inhibition female (individual replicates) R1 ([2]; 2µM, replicate R1) [%]	% inhibition female (individual replicates) R3 ([2]; 2µM, replicate R3) [%]	% inhibition female (individual replicates) R4 ([2]; 2µM, replicate R4) [%]	Selectivity ratio F [2]	IC50 [2, 4] [µM]	Tox50 (HepG2 cells) [µM]	IC50 [1, 5] [µM]	IC50 [2, 6] [µM]	also measured
COc1cccc(OC)c1CN1CCC(N(C)CCCCCCCCCN2CCC(OC(=O)Nc3ccccc3-c3ccccc3)CC2)CC1 [TCMDC-134690]	94.5	97.5	83.2	100.9	1.95	1.56	49.9	26.2	20.7	73.0	0.8	3.8	3.03			
FC(F)(F)c1ccc2[nH]c(-c3cccc(-c4cccc(CNCCN5CCNCC5)c4)c3)nc2c1.O=C(O)C(F)(F)F [TCMDC-132871]	95.8	94.1	90.3	100.2	6.65	1.52	25.3	24.1	40.5	19.2	1.27	7.94	10.12			
COCCN(C)CCCOc1cc2c(cc1OC)ncn2-c1cc(OCc2ccccc2C(F)(F)F)c(C(N)=O)s1.Cl [TCMDC-135214]					22.02						1.36		13.65	0.62	> 10	inhibition at 2 µM ([1]; Plasmodium falciparum, PfDGFA at 2µM, average of replicates, read-out: Average inhibition male (%)): 64.6%; inhibition at 2 µM ([1]; Plasmodium falciparum, PfDGFA at 2µM, replicate R1, read-out: % inhibition male (individual replicates) R1): 90.7%; inhibition at 2 µM ([1]; Plasmodium falciparum, PfDGFA at 2µM, replicate R2, read-out: % inhibition male (individual replicates) R2): 80.9%; inhibition at 2 µM ([1]; Plasmodium falciparum, PfDGFA at 2µM, replicate R3, read-out: % inhibition male (individual replicates) R3): 65.9%; inhibition at 2 µM ([1]; Plasmodium falciparum, PfDGFA at 2µM, replicate R4, read-out: % inhibition male (individual replicates) R4): 20.9%; HitlevelM ([1]; 2µM): 3; inhibition at 2 µM ([2]; Plasmodium falciparum, PfDGFA at 2µM, average of replicates, read-out: Average inhibition female (%)): 20.2%; inhibition at 2 µM ([2]; Plasmodium falciparum, PfDGFA at 2µM, replicate R1, read-out: % inhibition female (individual replicates) R1): 22.9%; inhibition at 2 µM ([2]; Plasmodium falciparum, PfDGFA at 2µM, replicate R2, read-out: % inhibition female (individual replicates) R2): 10%; inhibition at 2 µM ([2]; Plasmodium falciparum, PfDGFA at 2µM, replicate R3, read-out: % inhibition female (individual replicates) R3): 11%; inhibition at 2 µM ([2]; Plasmodium falciparum, PfDGFA at 2µM, replicate R4, read-out: % inhibition female (individual replicates) R4): 36.6%; HitlevelF ([2]; 2µM): 0
Cl.O=C1Nc2ccc3ncccc3c2/C1=C/Nc1ccc(N2CCN(CCO)CC2)cc1 [TCMDC-138634]					229.28						3.39		33.87	0.15	> 10	inhibition at 2 µM [1, 7]: 92.8%; inhibition at 2 µM [1, 8]: 89.8%; inhibition at 2 µM [1, 9]: 91.5%; inhibition at 2 µM [1, 10]: 89.7%; inhibition at 2 µM [1, 11]: 100%; inhibition at 2 µM [2, 12]: -7.8%; inhibition at 2 µM [2, 13]: -5.3%; inhibition at 2 µM [2, 14]: -7.3%; inhibition at 2 µM [2, 15]: -18.8%; inhibition at 2 µM [2, 16]: 0.25%
O=C(O)C(F)(F)F.O=c1[nH]ccc2nc(N[C@@H]3CCNC3)nc(Nc3cc(Cl)cc(Cl)c3)c12 [TCMDC-135052]	90.0	96.4	98.4	88.5	4.82	1.53	61.3	75.7	60.7	86.1	1.49	4.94	7.37			
CN1CCN(c2ccc(Nc3c4ccccc4nc4ccccc34)cc2)CC1 [TC57]																Cytotox ratio Pf Male [1]: 45.2; IC50 ([1]; this study, read-out: Pf DGFA IC50 MALE): 0.59 µM; Cytotox ratio Pf Female [2]: 3.0; IC50 ([2]; this study, read-out: Pf DGFA IC50 FEM): 8.84 µM; Mean TOX (HepG2 cells; mean of the HepG2 TOX50 values): 26.65 µM
CCOc1c(CCNCCCCNCCc2ccc3ccccc3c2OCC)ccc2ccccc12.CS(=O)(=O)O [TCMDC-137759]	92.2	95.9	97.8	100.2	2.62	1.31	82.4	86.3	88.2	86.8	1.48	2.33	3.44			
CC(C)(C)c1ccc(-c2nc3c(ccc4nc(N)nc(N)c43)[nH]2)cc1.Cl [TCMDC-137984]					17.94						3.35		3.25	0.18	0.97	inhibition at 2 µM [1, 7]: 99.4%; inhibition at 2 µM [1, 8]: 99.9%; inhibition at 2 µM [1, 9]: 99.6%; inhibition at 2 µM [1, 10]: 98%; inhibition at 2 µM [1, 11]: 100%; inhibition at 2 µM [2, 12]: 42.3%; inhibition at 2 µM [2, 13]: 35.1%; inhibition at 2 µM [2, 14]: 50%; inhibition at 2 µM [2, 15]: 42.4%; inhibition at 2 µM [2, 16]: 41.7%
CC(C)(C)c1ccc(CNC(=O)c2ccc(CNC3CCC(N)CC3)s2)cc1 (stereo not shown) [TCMDC-140777]					7.72	1.21					1.74	5.36	9.32			Average inhibition male (%) [1, 17]: 76.0%; % inhibition male (individual replicates) R1 ([1]; PfDGFA at 2µM, replicate R1): 74.4%; % inhibition male (individual replicates) R3 ([1]; PfDGFA at 2µM, replicate R3): 56.4%; % inhibition male (individual replicates) R4 ([1]; PfDGFA at 2µM, replicate R4): 93.6%; HitlevelM ([1]; 2µM): 4; Average inhibition female (%) [2, 17]: 32.6%; % inhibition female (individual replicates) R1 ([2]; PfDGFA at 2µM, replicate R1): 23.5%; % inhibition female (individual replicates) R3 ([2]; PfDGFA at 2µM, replicate R3): 26.9%; % inhibition female (individual replicates) R4 ([2]; PfDGFA at 2µM, replicate R4): 56.3%; HitlevelF ([2]; 2µM): 1
c1ccc(-c2nc(Nc3nc4ccccc4[nH]3)[nH]c2-c2ccccc2)cc1 [TCMDC-139099]					17.05						15.94		16.22	0.95	1.02	inhibition at 2 µM [1, 7]: 97.9%; inhibition at 2 µM [1, 8]: 97.5%; inhibition at 2 µM [1, 9]: 98.5%; inhibition at 2 µM [1, 10]: 96.8%; inhibition at 2 µM [1, 11]: 98.9%; inhibition at 2 µM [2, 12]: 58.5%; inhibition at 2 µM [2, 13]: 38.7%; inhibition at 2 µM [2, 14]: 75.2%; inhibition at 2 µM [2, 15]: 46.9%; inhibition at 2 µM [2, 16]: 73.1%
CCCC(N)C(=O)NC1CCN(c2c(F)c(N)c3c(=O)c(C(=O)O)cn4c3c2Oc2ccccc2-4)C1.Cl (stereo not shown) [TCMDC-125701]	89.8	87.0	88.1	95.7	2.29	1.31	53.0	43.9	47.1	70.9	0.68	4.43	2.99			
Cc1c(Cn2nc(Cl)c(N3CCNCC3)cc2=O)cccc1NC(=O)Nc1ccc(-c2ccccc2)cc1.O=C(O)C(F)(F)F [TCMDC-141699]	91.5	87.4	92.1	92.9	2.05	0.58	53.7	31.7	37.6	62.1	2.15	0.56	1.2			
